Reference: patent publication US6765014B1, “1-Acyl-7-nitroindoline derivatives, their preparation and their use as photocleavable precursors” (Medical Research Council, priority 1999, dated 2004)

Legend:
[1] = literature value (16); cited from earlier work
[2] = Quantum yield estimation by laser flash irradiation (347 nm); format: physicochemical
Procedure: Quantum yield estimation for 10. A solution of 1-(2-nitrophenylethyl) phosphate and 10 (each 0.50 mM) together with dithiothreitol (5 mM) was prepared in 25 mM ammonium phosphate, pH 7.0. Aliquots of the solution ([…]) in a 1-mm path length cell were each subjected to one 50-ns flash from a frequency-doubled ruby laser, that delivered 347 nm light with an average energy of 90 mJ (range 83-104 mJ). The combined irradiated solutions were analyzed by reverse-phase HPLC (mobile phase 25 mM Na phosphate, pH 6.0+40% MeOH, 1.5 ml/min). Retention times were 4.2 and 7.2 min for 10 and 1-(2-nitrophenylethyl) phosphate respectively. Quantification was based on peak heights compared to those of the unphotolyzed control. Extinction coefficients at 347 nm used to calculate the relative quantum yields were 2720 and 510 M^−1cm^−1 for 10 and 1-(2-nitrophenylethyl) phosphate respectively. Photolysis and product analysis for compounds 10 and 18.
The product quantum yield (Qp) for photolysis of the glutamate derivative 10 was determined by laser flash irradiation (347 nm) of a solution containing 10 and 1-(2-nitrophenyl)ethyl phosphate (16) (both 0.5 mM in pH 7 phosphate buffer). Conversions by a single flash (˜90 mJ) were 9.7 and 23% respectively (reverse-phase HPLC), leading to Qp=0.043 by comparison with the known value (16) (0.54) for the caged phosphate and after correction for the different extinction coefficients at the irradiation wavelength. Although the value of Qp is low, the relatively high extinction coefficient at ˜350 nm (˜2700 M^−1cm^−1) compared to that of “classical” 2-nitrobenzyl-type caged compounds (˜600 M^−1cm^−1) enables similar photolytic efficiency to be achieved.

[3] = Relative photolysis efficiencies of 8 and 11 (xenon arc lamp, HPLC); format: physicochemical; conditions: after 2 min irradiation, 0.5 mM each, 25 mM Na phosphate pH 7.0, 100 W xenon arc lamp
Procedure: Relative photolysis efficiencies of 8 and 11. A solution containing both 8 and 11 (each 0.5 mM) in 25 mM Na phosphate, pH 7.0 was irradiated in a 1-mm path length cell using light from a 100 W xenon arc lamp which passed through Hoya 340 and Schott WG 305 filters before. illuminating the cell. The extent of photolysis of each compound was determined by reverse-phase HPLC analysis (mobile phase 10 mM Na phosphate, pH 6.0+50% MeOH, 1.5 mL/min). Retention times for 8 and 11 were 3.8 and 7.8 min respectively. After 2 min irradiation, the extents of conversion for compounds 8 and 11 were 40 and 16% respectively.
(§1) Upon comparative photolysis of the 1-glutaryl derivatives 8 and 11 in aqueous solutions at pH 7 and without excluding atmospheric oxygen, the bromo compound 11 was indeed converted ˜2.5-fold less efficiently than 8. Photolysis of 8 proceeded cleanly, as shown by an isosbestic point at 365 nm in spectra of a solution photolyzed for increasing times to at least 65% conversion, but the photoproduct of the protecting group was not the 7-nitroindoline 12 (λmax 450 nm) expected from the previous report (6a). […] Further confirmation of the presence of a nitroso group was that treatment of 13, R=CH2CO2Me) with a thiol readily abolished the 412 nm chromophore, presumably by conversion to the corresponding hydroxylamine (11, 12). […] In control experiments, photolysis of the glutaryl compound 8 in CH2Cl2-dioxane-H2O (2:3:0.05) cleanly gave the expected (6a) nitroindoline 12.

[4] = Analytical photolysis of 8 in organic and aqueous solvents; format: physicochemical; conditions: CH2Cl2-dioxane-H2O mixture vs aqueous solution, equimolar solutions
Procedure: Analytical photolysis of 8 in organic and aqueous solvents. Solutions (˜[…]) of 8 in either CH2Cl2-dioxane-H2O (2:3:0.05) or 25 mM Na phosphate, pH 7.0 were irradiated in air for times between 0 and 16 min in a 1-cm path length cell with light from a 100 W xenon arc lamp, filtered through a Hoya 340 filter.
as §1

[5] = Flash photolysis with time-resolved UV-VIS absorption spectroscopy, proton release (pH indicator); format: physicochemical; conditions: 320 nm laser, 1 ms pulse, 20° C.
Excerpt: (§2) Formation of different products in different solvents requires a change of mechanism and there is some precedent for photoreactivity of nitroaryl compounds in aqueous solution that was not observed in organic solvents. […] Second, we have investigated the kinetics of product formation, specifically of the released proton and carboxylate. […] The latter process may correspond with the slow phase of proton release described above. An overlapping band on the high-frequency side of the main 1553 cm^−1 band makes definitive interpretation of the signals uncertain.

[6] = Water solubility (stated in words); format: physicochemical
[7] = Hydrolytic stability of 1-acyl-7-nitroindolines (reverse-phase HPLC); format: physicochemical; conditions: 62.5 mM Na phosphate, pH 12.01, 30° C.
Procedure: The extent of hydrolysis was determined by reverse-phase HPLC analysis (mobile phase 25 mM Na phosphate, pH 6.0+10% MeOH, 1.5 ml/min). […] Quantification was based on peak heights compared to those of unhydrolysed controls (to). First-order rate constants for hydrolysis were obtained from single exponential fits to the data.
In addition to the release rate of the bioeffector species following flash irradiation, important properties of any caged compound include stability in aqueous solution and its extent of photolysis upon a single flash irradiation.
In this context, hydrolytic stability refers to the amide bond. […] The use of the free acids avoided analytical complications from the much faster cleavage of the ester group.

glutamate ion channels = experiment: Whole-cell patch clamp of cultured rat cerebellar granule neurones, with and without flash photolysis; format: cell-based; conditions: with and without iontophoretic application of L-glutamate
Procedure: The caged L-glutamate reagent 10 was tested in primary cultures of rat cerebellar granule neurones for its pharmacological actions and ability to effect photolytic activation of glutamate ion channels. All electrophysiological experiments were performed in Mg^2+-free mammalian Ringer's solution containing 100 μM glycine. Cells were voltage clamped at −65 mV with whole-cell patch clamp (17) and the glutamate sensitivity was established by responses to 20 ms pulses of L-glutamate, applied at a frequency of 0.25 Hz by iontophoresis from a 1-μm tipped glass pipette. […] The latter most likely arises from glutamate diffusion away from the photolyzed region. The time course of the initial decline may represent desensitization of non-NMDA glutamate channels.
During the slow decline there was a clear increase in the low frequency noise of the glutamate-activated current compared to baseline, consistent with gating of glutamate-activated ion channels.

[8] = Flash photolysis with time-resolved IR measurements, carboxylate formation; format: physicochemical; conditions: 1557 cm^−1, 351 nm laser, 9 ns pulse, 25° C., pH 7
Excerpt: as §2

[9] = pH 7,21° C.; cited from earlier work

For CC(OP(=O)(O)O)c1ccccc1[N+](=O)[O-] (stereo not drawn) [1-(2-nitrophenylethyl) phosphate, 1-(2-Nitrophenylethyl) phosphate, reference compound], the “Product quantum yield, known value” [1] is given as 0.54, the “Conversion by a single flash” value ([2]; 347 nm laser flash, ~90 mJ, 0.5 mM, pH 7 phosphate buffer) is given as 23% and the “Extinction coefficient at 347 nm” value ([2]; used to calculate relative quantum yields) is given as 510 M⁻¹ cm⁻¹.
With COC(=O)Cc1cc2c(c([N+](=O)[O-])c1)N(C(=O)CCCC(=O)O)CC2 [Compound 8, Methyl 1-glutaryl-7-nitroindoline-5-acetate] the “Extent of conversion (photolysis)” value [3] was 40%, the “Fold more efficient photolysis in organic solvent than in water” value [4] was “at least 2 fold” and the “Proton release, rate of smaller component” value ([5]; pH 7) was about 9 s⁻¹. For the same compound, the “Proton release, time course of major component” value ([5]; pH 7) was “complete within the laser pulse” and the “Proton release, major component share of signal” value ([5]; pH 7, Bromothymol Blue) was about 85%.
For COC(=O)Cc1cc2c(c([N+](=O)[O-])c1)N(C(=O)CCCCOP(=O)(O)O)CC2 [Compound 9], the “Water solubility” value [6] was “highly water-soluble”, the “Half-times for hydrolysis (amide hydrolysis)” value [7] was 29 h and the “Effect of the caged compound before, during and after photolysis” value (glutamate ion channels) was “no effect”. The “Carboxylate formation, exponential rate of major component” value [8] was about 2700 s⁻¹, the “Carboxylate formation, exponential rate of minor component” value [8] was about 10 s⁻¹ and the “Carboxylate formation, major component share of absorption increase” value [8] was about 80%.
In the case of N-carboxyglutamate, the Decarboxylation rate k [9] is given as about 150 s⁻¹.
